Data published in patent US20070166547A1, “Use of a layer consisting of hydrophobic linear, or two-dimensional polycyclic aromatics as a barrier layer or an encapsulation and electric components constructed with a layer of this type and comprising organic polymers” (priority 2003, published 2007).
Marks after values point to notes of the source that are not given here.

Assays:
[1] = test system: metabolism of nitrogen oxide; experiment: Morphine abstinence model: nitrites and nitrates NOX− in blood plasma, liver and brain; assay type: in vivo, rats Wistar; conditions: for Nitrites in blood plasma, Control + Compound / Nitrites in brain, Cortex of cerebrum, Control + Compound / Nitrites in brain, Hypothalamus, Control + Compound / Nitrites in brain, Mesencephalon, Control + Compound / Nitrites in liver, Control + Compound: compound alone 20.0 mg/kg intramuscularly; for Nitrites in blood plasma, Control + Morphine + compound / Nitrites in brain, Cortex of cerebrum, Control + Morphine + compound / Nitrites in brain, Hypothalamus, Control + Morphine + compound / Nitrites in brain, Mesencephalon, Control + Morphine + compound / Nitrites in liver, Control + Morphine + compound: morphinized rats then compound 20.0 mg/kg intramuscularly
Procedure: The experiments were carried out on rats in series of 7 animals on each compound according to the invention. Non-morphinized animal with not administered with compounds according to the invention were used as a control group. […] Then the rats were decapitated, the blood from somnolent arteries was collected in test tubes with solution EDTA as an anticoagulant, centrifuged at 1500 g for 15 minutes at 4° C.
To estimate the intensity of metabolism of nitrogen oxide in rats, quantitative determination of stable metabolites of nitrogen oxide—nitrites and nitrates NOX^− in the blood plasma, supernatanates of the liver and thymus gland, a study was conducted by a spectrometric method, and in the brain supernatanates by a […] method.
The spectrometric method is based the reaction of nitrites with the Griss reagent (a mixture of 2% solution of sulfanilamide and 0.2% N-(1-naphthyl)ethylene diamine. At the first step the nitrite reacts with sulfanilamide with formation of diazonium salt, and then with the second component to form azo dye with an adsorption maximum at 540 nm. For reduction of nitrates into nitrites, a fermentative method was used with bacterial reductase nitrate (Grisham M. B. et al., 1995). The samples of plasma and supernatant of the liver deproteinizated at 100° C. for 5 minutes incubated for 30 minutes at 37° C. in 50.0 mM of HEPES pH 7.4 in the presence of 0.2 unit/ml of Aspergillus reductase nitrate, 5.0 mkM of FAD and 0.1 mM of NAD-Ph. At the end of the reaction lactate dehydrogenase and pyruvate were added for isolation of NAD-Ph interfering with the Griss reaction. Then the Griss reagent was added and after 10-minute incubation the light absorption of the samples was measured at 540 nm. To amount of NOX^− was calculated using sodium nitrate as a standard.
The fluorometric method is based on calculation of the nitrite level by the intensity fluorescence of 2,3-diaminonaphthotriazole, a product of reaction of 2,3-diaminonaphthalene (DAN) and nitrite in an acidic medium (Misko T. R., Schilling R. J., Salvemini D. et al. “A fluorometric assay for the measurement of nitrite of biological samples”. Anal. Biochem., 1993, v. 214, p. 11-16). The brain supernatants deproteinizated at 100° C. were placed in a nitrite regenerating system containing 0.125 unit/ml of nitrate reductases, 25 mkM NADPh and 25 mkM FAD prepared in a 20-mM Tris-HCl buffer with pH 7.6 and incubated for 30 minutes at 37° C. The lactatedehydrogenase/pyruvate system was used for oxidation of the NADPh. Then 316 mkM of the DAN solution in 0.62 M of hydrochloric acids were added and the mixture was incubated for 10 minutes in darkness.
280 mM of NaOH were added for stabilization of the fluorescence of the formed 2,3-diaminonaphthotriazole. The fluorescence intensity was measured in the spectrofluorimeter Hitachi F-3000 at a wavelength of excitation of 365 nm and an emission of 405 nm. The concentration of NOX^− in the brain was calculated by means of a standard solution of sodium nitrate.

[2] = test system: plasma hemostasis; experiment: Prothrombin time after intravenous administration; assay type: in vivo, rabbit; conditions: for effect on the prothrombin time index (overall): doses of 15.0, 30.0, 60.0 mg/kg
Procedure: (§1) The investigations were performed on 72 rabbits of the “Chinchilla” breed with a mass of 2.5±0.3 kg, who were administered which solutions of compounds 2, 15, 21, 37 in doses of 15, 30 and 60 mg/kg intravenously. The experiments included the thrombin-test (series No. 7300) and the coagulability-test (series No. 5000) purchased from the scientific-and-production association (SPA) “Renam”, thromboplastin (series No. 240600) and calcium chloride purchased from the SPA “MedioLab”
(§2) The static parameters of the blood and plasma coagulation (partial activated thromboplastin time, thrombin time, maximum coagulation activity (test for auto coagulation) were determined using the Behnk Electronic coagulometer (Germany). The operating principle of this instrument is based on the fact that the formed blood clot breaks the contacts of the pulse counter in the flask-pin circuit, said pin permanently oscillating in a vertical plane. The moment of formation of the clot is registered by stopping the stop watch hand.
(§3) The measurements were effected at a constant temperature of 37° C. maintained by a temperature control unit.
The method of its determination is based on estimation of the coagulation of citrate or oxalic blood plasma, when it is mixed with thromboplastin and a calcium chloride solution. Since under these conditions the time of formation of the clot depends on the content of II, VII, IX and X factors in the investigated plasma sample, now the test is called “thromboplastin time by Quick” or “activity thromboplastin complex”.
Compounds 2, 15, 21, 37 according to the invention at a concentration of 15, 30 and 60 mg/kg were administered to the above experimental animals intravenously and their blood was taken off after 15, 30, 60 and 120 minutes after the administration.
Citrate blood containing 1 part of citrate per 9 parts of native blood was centrifuged at 3000 rev/min for 10 minutes to obtain plasma deprived of thrombocytes.
Added into a test tube in a water bath were 0.1 ml of plasma and 0.1 ml of a thromboplastin solution. After 60 seconds, 0.1 ml of 0.277% solution of calcium chloride was added and the time of reaction T1 in seconds was registered.

[3] = test system: plasma hemostasis; experiment: Thrombin time after intravenous administration; assay type: in vivo, rabbit
Procedure: as §1, §2, §3
The “thrombin time” characterizes the rate of transformation of fibrinogen into fibrin. It was determined by measuring the coagulation time of plasma deprived of thrombocytes under the effect of thrombin standardized by the control plasma.
0.2 ml of a thrombin solution was added to 0.2 ml of the test blood plasma of experimental animals, from whom the blood was taken 15, 30, 60 and 120 minutes after the intravenous administration of compounds 2, 15, 21, 37 according to the invention in doses of 15, 30, 60 mg/kg incubated for 1 minute at a temperature of 37° C. and the time of formation of clot T2 in seconds in a coagulometer of the Behnk Electronic Company (Germany).

Row | Structure (SMILES) | T, s After 120 minutes (prothrombin time) ([2]; dose 15.0 mg/kg intravenously) [s] | T, s after 15 minutes (prothrombin time) ([2]; dose 15.0 mg/kg intravenously) [s] | T, s after 30 minutes (prothrombin time) ([2]; dose 15.0 mg/kg intravenously) [s] | T, s after 60 minutes (prothrombin time) ([2]; dose 15.0 mg/kg intravenously) [s] | T, s After 120 minutes (prothrombin time) ([2]; dose 30.0 mg/kg intravenously) [s] | T, s after 15 minutes (prothrombin time) ([2]; dose 30.0 mg/kg intravenously) [s] | T, s after 30 minutes (prothrombin time) ([2]; dose 30.0 mg/kg intravenously) [s] | T, s after 60 minutes (prothrombin time) ([2]; dose 30.0 mg/kg intravenously) [s] | T, s After 120 minutes (prothrombin time) ([2]; dose 60.0 mg/kg intravenously) [s] | T, s after 15 minutes (prothrombin time) ([2]; dose 60.0 mg/kg intravenously) [s] | T, s after 30 minutes (prothrombin time) ([2]; dose 60.0 mg/kg intravenously) [s] | T, s after 60 minutes (prothrombin time) ([2]; dose 60.0 mg/kg intravenously) [s] | effect on the prothrombin time index (overall) [2] | T2, s After 120 minutes (thrombin time) ([3]; dose 15.0 mg/kg intravenously) | T2, s after 15 minutes (thrombin time) ([3]; dose 15.0 mg/kg intravenously) | T2, s after 30 minutes (thrombin time) ([3]; dose 15.0 mg/kg intravenously) | T2, s after 60 minutes (thrombin time) ([3]; dose 15.0 mg/kg intravenously) | T2, s After 120 minutes (thrombin time) ([3]; dose 30.0 mg/kg intravenously) | T2, s after 15 minutes (thrombin time) ([3]; dose 30.0 mg/kg intravenously) | T2, s after 30 minutes (thrombin time) ([3]; dose 30.0 mg/kg intravenously) | other results
1 | Nc1cccc2c(=O)[nH][nH]c(=O)c12.[Na] [Compound 15, sodium salt of 5-amino-benzo[d]-3H-pyridazine-1,4-dione] | 11.5 ± 0.2 | 11.5 ± 0.2 | 11.7 ± 0.2 | 11.2 ± 0.2 | 11.3 ± 0.2 | 11.0 ± 0.2 | 11.2 ± 0.2 | 11.4 ± 0.2 | 12.0 ± 0.1 | 12.0 ± 0.1 | 12.0 ± 0.1 | 12.0 ± 0.2 | have no effect on the prothrombin time index | 15.5* s | 17.0* s | 18.5* s | 16.5* s | 15.0* s | 19.7* s | 20.5* s | Nitrites in blood plasma, Control + Compound [1]: 14.39 ± 0.84 mkmol/ml; Nitrites in brain, Cortex of cerebrum, Control + Compound [1]: 4.31 ± 0.37 nmol/mg of protein; Nitrites in brain, Hypothalamus, Control + Compound [1]: 6.77 ± 0.83 nmol/mg of protein; Nitrites in brain, Mesencephalon, Control + Compound [1]: 6.65 ± 0.70 nmol/mg of protein; Nitrites in liver, Control + Compound [1]: 0.259 ± 0.019 nmol/mg of protein; Nitrites in blood plasma, Control + Morphine + compound [1]: 13.91 ± 1.91 mkmol/ml; Nitrites in brain, Cortex of cerebrum, Control + Morphine + compound [1]: 4.72 ± 0.37 nmol/mg of protein; Nitrites in brain, Hypothalamus, Control + Morphine + compound [1]: 6.57 ± 0.88 nmol/mg of protein; Nitrites in brain, Mesencephalon, Control + Morphine + compound [1]: 5.50 ± 0.43 nmol/mg of protein; Nitrites in liver, Control + Morphine + compound [1]: 0.285 ± 0.02 nmol/mg of protein; T2, s after 60 minutes (thrombin time) ([3]; dose 30.0 mg/kg intravenously): 21.3* s; T2, s After 120 minutes (thrombin time) ([3]; dose 60.0 mg/kg intravenously): 14.7* s; T2, s after 15 minutes (thrombin time) ([3]; dose 60.0 mg/kg intravenously): 16.8* s; T2, s after 30 minutes (thrombin time) ([3]; dose 60.0 mg/kg intravenously): 18.0* s; T2, s after 60 minutes (thrombin time) ([3]; dose 60.0 mg/kg intravenously): 16.5* s
2 | Nc1cnc2c(=O)n([C@@H]3O[C@H](CO)[C@@H](O)[C@H]3O)[nH]c(=O)c2n1.[Na] [Compound 21, sodium salt of 3-amino-7-(β-D-ribofuranosile)pyrazine[2,3-d]-6H-pyridazine-5,8-dione] | 11.5 ± 0.2 | 11.4 ± 0.2 | 11.5 ± 0.1 | 11.3 ± 0.1 | 11.2 ± 0.2 | 11.2 ± 0.1 | 11.2 ± 0.1 | 11.3 ± 0.2 | 12.0 ± 0.2 | 12.0 ± 0.2 | 11.8 ± 0.1 | 12.1 ± 0.1 | have no effect on the prothrombin time index | 15.7* s | 16.4* s | 17.7* s | 16.1* s | 15.6* s | 17.9* s | 18.8* s | T2, s after 60 minutes (thrombin time) ([3]; dose 30.0 mg/kg intravenously): 19.0* s; T2, s After 120 minutes (thrombin time) ([3]; dose 60.0 mg/kg intravenously): 15.7* s; T2, s after 15 minutes (thrombin time) ([3]; dose 60.0 mg/kg intravenously): 16.2* s; T2, s after 30 minutes (thrombin time) ([3]; dose 60.0 mg/kg intravenously): 17.7* s; T2, s after 60 minutes (thrombin time) ([3]; dose 60.0 mg/kg intravenously): 16.3* s
3 | O=c1[nH][nH]c(=O)c2nccnc12.[Li] [Compound 25, lithium salt of pyrazine[2,3-d]-6H-pyridazine-5,8-dione] |  |  |  |  |  |  |  |  |  |  |  |  |  |  |  |  |  |  |  |  | Nitrites in blood plasma, Control + Compound [1]: 17.10 ± 2.05 mkmol/ml; Nitrites in brain, Cortex of cerebrum, Control + Compound [1]: 4.47 ± 0.43 nmol/mg of protein; Nitrites in brain, Hypothalamus, Control + Compound [1]: 6.87 ± 0.80 nmol/mg of protein; Nitrites in brain, Mesencephalon, Control + Compound [1]: 6.98 ± 1.02 nmol/mg of protein; Nitrites in liver, Control + Compound [1]: 0.307 ± 0.012 nmol/mg of protein; Nitrites in blood plasma, Control + Morphine + compound [1]: 16.78 ± 2.11 mkmol/ml; Nitrites in brain, Cortex of cerebrum, Control + Morphine + compound [1]: 4.91 ± 0.32 nmol/mg of protein; Nitrites in brain, Hypothalamus, Control + Morphine + compound [1]: 6.67 ± 0.79 nmol/mg of protein; Nitrites in brain, Mesencephalon, Control + Morphine + compound [1]: 5.91 ± 0.74 nmol/mg of protein; Nitrites in liver, Control + Morphine + compound [1]: 0.287 ± 0.01 nmol/mg of protein
4 | Nc1ccnc2c(=O)n([C@@H]3O[C@H](CO)[C@@H](O)[C@H]3O)[nH]c(=O)c12 [Compound 2, 4-amino-7-(β-D-ribofuranosile)pyrido[2,3-d]-6H-pyridazine-5,8-dione] | 11.7 ± 0.1 | 11.7 ± 0.2 | 11.5 ± 0.2 | 11.4 ± 0.2 | 11.2 ± 0.2 | 11.1 ± 0.2 | 11.0 ± 0.1 | 11.3 ± 0.1 | 11.9 ± 0.1 | 12.0 ± 0.1 | 11.9 ± 0.2 | 12.1 ± 0.2 | have no effect on the prothrombin time index | 15.3* s | 16.2* s | 17.0* s | 16.0* s | 15.3* s | 17.8* s | 18.4* s | T2, s after 60 minutes (thrombin time) ([3]; dose 30.0 mg/kg intravenously): 19.2* s; T2, s After 120 minutes (thrombin time) ([3]; dose 60.0 mg/kg intravenously): 15.3* s; T2, s after 15 minutes (thrombin time) ([3]; dose 60.0 mg/kg intravenously): 16.0* s; T2, s after 30 minutes (thrombin time) ([3]; dose 60.0 mg/kg intravenously): 16.9* s; T2, s after 60 minutes (thrombin time) ([3]; dose 60.0 mg/kg intravenously): 15.9* s
